Three compounds from patent US20230265151A1, “GIP/GLP1 CO-AGONIST COMPOUNDS” (priority 2020, published 2023) can be followed below.

As a reminder, the EC50 is the concentration giving half of the maximal effect. As usually defined, the Emax is the maximal effect, on the per cent scale that the assay sets.

Like-named read-outs stand apart in the source and are kept apart here. *1 amine or outer side, *2 acyl side, *3 side chain or, on linkers, in order; H or OH if unused. Where a SMILES comes first, the peptide text is derived from it. Side-chain parts run from the residue outwards. [ ]: non-standard residue; d: D form. The star is where a group is joined. Decanoyl(10-(4-HOOC-PhO)) = O=C(O)c1ccc(OCCCCCCCCCC(=O)*)cc1; αMePhe(2-F) = C[C@](N)(Cc1ccccc1F)C(=O)O; γGlu = O=C(O)[C@H](CCC(=O)[*:2])N[*:1]; C14 diacid = O=C(O)CCCCCCCCCCCCC(=O)*; αMeY = C[C@](N)(Cc1ccc(O)cc1)C(=O)O; αMeL = CC(C)C[C@](C)(N)C(=O)O; Orn = NCCC[C@H](N)C(=O)O; AEEA = NCCOCCOCC(=O)O; Aib = CC(C)(N)C(=O)O Some results are limits rather than exact numbers.

Assay type in all cases: cell-based
Test [1] concerns the target hGLP-1R (Homo sapiens, UniProt P43220). Kind of test: Functional cAMP formation (HTRF) in HEK-293 clonal cells expressing hGLP-1R, 0.1% bovine casein, without or with 1.0% human serum albumin. Details: expressed in transfected cells. Conditions: for Emax: percent of maximal response to GLP-1(7-36)NH2. The gist of the method:
(§1)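 Cells were stimulated with peptide for 30 min at 37° C, then intracellular cAMP was measured by competitive HTRF (665/620 nm ratio) and converted to nM using a cAMP standard curve. Relative EC50 and Emax came from four-parameter logistic fits of percent maximal response against peptide concentration.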
A general note: Changes in cAMP serve as a functional read-out for many G protein-coupled receptors.

Test [2] has as its target T1, hGCGR (Homo sapiens, UniProt P47871).
T1 construct: expressed in transfected cells
Put plainly: Functional cAMP formation (HTRF) in HEK-293 clonal cells expressing hGCGR, 0.1% bovine casein, without or with 1.0% human serum albumin. The gist of the method: as §1

Test [3] deals with T2, hGIPR (Homo sapiens, UniProt P48546).
T2 construct: expressed in transfected cells
T2 sequence (P48546 22-466): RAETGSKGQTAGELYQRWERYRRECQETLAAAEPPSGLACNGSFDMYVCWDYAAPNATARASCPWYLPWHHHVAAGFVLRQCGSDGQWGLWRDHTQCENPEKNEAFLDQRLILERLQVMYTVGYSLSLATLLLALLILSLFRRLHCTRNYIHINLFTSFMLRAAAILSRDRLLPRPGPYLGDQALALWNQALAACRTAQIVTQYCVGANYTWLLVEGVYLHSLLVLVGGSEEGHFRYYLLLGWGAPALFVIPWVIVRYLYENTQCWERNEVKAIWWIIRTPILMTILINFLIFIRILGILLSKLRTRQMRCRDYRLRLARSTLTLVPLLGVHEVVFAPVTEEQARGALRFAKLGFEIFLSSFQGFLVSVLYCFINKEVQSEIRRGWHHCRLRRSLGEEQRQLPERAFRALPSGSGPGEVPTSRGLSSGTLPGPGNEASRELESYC
Put plainly: Functional cAMP formation (HTRF) in HEK-293 clonal cells expressing hGIPR, 0.1% bovine casein, without or with 1.0% human serum albumin. The settings on record: for EC50: geometric mean. The gist of the method:
as §1

T1 sequence (P47871 26-477): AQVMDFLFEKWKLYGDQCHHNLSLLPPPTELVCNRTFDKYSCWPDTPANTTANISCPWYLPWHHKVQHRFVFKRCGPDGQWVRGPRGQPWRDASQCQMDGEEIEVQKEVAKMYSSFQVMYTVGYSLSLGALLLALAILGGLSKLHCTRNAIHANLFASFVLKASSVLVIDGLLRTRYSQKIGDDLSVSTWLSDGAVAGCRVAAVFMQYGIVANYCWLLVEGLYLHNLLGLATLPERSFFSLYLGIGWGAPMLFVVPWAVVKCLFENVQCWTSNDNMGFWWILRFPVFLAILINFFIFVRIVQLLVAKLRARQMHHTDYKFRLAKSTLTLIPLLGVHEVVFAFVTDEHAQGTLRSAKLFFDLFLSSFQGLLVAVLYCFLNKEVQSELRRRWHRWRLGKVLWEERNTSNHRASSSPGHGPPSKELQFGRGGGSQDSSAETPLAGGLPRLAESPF
hGLP-1R, sequence (P43220 24-463): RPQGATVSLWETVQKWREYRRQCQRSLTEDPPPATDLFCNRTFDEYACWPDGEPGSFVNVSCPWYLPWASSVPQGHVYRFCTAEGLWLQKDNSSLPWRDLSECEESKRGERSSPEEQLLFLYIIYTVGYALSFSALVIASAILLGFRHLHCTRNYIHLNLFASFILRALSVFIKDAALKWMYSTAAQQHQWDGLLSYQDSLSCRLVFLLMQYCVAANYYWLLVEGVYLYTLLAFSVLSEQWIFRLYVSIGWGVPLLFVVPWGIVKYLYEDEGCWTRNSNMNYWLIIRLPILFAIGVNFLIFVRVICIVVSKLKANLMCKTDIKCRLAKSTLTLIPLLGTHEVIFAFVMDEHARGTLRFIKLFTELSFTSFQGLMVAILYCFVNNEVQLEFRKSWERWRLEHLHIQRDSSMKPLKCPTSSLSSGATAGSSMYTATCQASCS

Regarding `CC[C@H](C)[C@H](NC(=O)[C@H](CCCN)NC(=O)[C@H](CC(=O)O)NC(=O)[C@H](CC(C)C)NC(=O)[C@](C)(CC(C)C)NC(=O)[C@@H](NC(=O)[C@H](CO)NC(=O)[C@H](Cc1ccncc1)NC(=O)[C@H](CC(=O)O)NC(=O)[C@H](CO)NC(=O)[C@@H](NC(=O)[C@](C)(Cc1ccccc1F)NC(=O)[C@@H](NC(=O)CNC(=O)[C@H](CCC(=O)O)NC(=O)C(C)(C)NC(=O)[C@@H](N)Cc1ccc(O)cc1)[C@@H](C)O)[C@@H](C)O)[C@@H](C)CC)C(=O)N[C@@H](C)C(=O)N[C@@H](CCC(N)=O)C(=O)NC(C)(C)C(=O)N[C@@H](CCCCNC(=O)COCCOCCNC(=O)COCCOCCNC(=O)CC[C@H](NC(=O)CCCCCCCCCCCCC(=O)O)C(=O)O)C(=O)N[C@@H](Cc1ccccc1)C(=O)N[C@H](C(=O)N[C@H](CCC(=O)O)C(=O)N[C@@](C)(Cc1ccc(O)cc1)C(=O)N[C@@H](CC(C)C)C(=O)N[C@H](C(=O)N[C@@H](CCC(=O)O)C(=O)NCC(=O)NCC(=O)N[C@@H](CCCCNC(=O)COCCOCCNC(=O)COCCOCCNC(=O)CC[C@H](NC(=O)CCCCCCCCCCCCC(=O)O)C(=O)O)C(=O)N[C@@H](CO)C(=O)N[C@@H](CO)C(=O)NCC(=O)N[C@@H](C)C(=O)N1CCC[C@H]1C(=O)N1CCC[C@H]1C(=O)N1CCC[C@H]1C(=O)N[C@@H](CO)C(N)=O)[C@@H](C)CC)[C@@H](C)CC` [Example 74], the EC50 in test [1] (0.1% bovine casein and 1.0% human serum albumin, 37° C., geometric mean, read-out: hGLP-1R EC50, nM (SEM, n)) is 59.5 nM; in test [1] (cAMP, incubated at 37° C., 0.1% bovine casein (no human serum albumin), geometric mean, read-out: hGLP-1R EC50, nM (SEM, n)), 0.334 nM; in test [2] (0.1% bovine casein and 1.0% human serum albumin, 37° C., geometric mean, read-out: hGCGR EC50, nM (SEM, n)), > 9950 nM; in test [2] (cAMP, incubated at 37° C., 0.1% bovine casein (no human serum albumin), geometric mean, read-out: hGCGR EC50, nM (SEM, n)), > 9950 nM; in test [3] (0.1% bovine casein and 1.0% human serum albumin, 37° C., read-out: hGIPR EC50, nM (SEM, n)), 2.19 nM; in test [3] (cAMP, incubated at 37° C., 0.1% bovine casein (no human serum albumin), read-out: hGIPR EC50, nM (SEM, n)), 0.0156 nM. Besides, the Emax in test [3] (HEK293, 0.1% bovine casein and 1.0% human serum albumin, 37° C., percent of maximal response to GIP(1-42)NH2, read-out: hGIPR Emax, % ± SEM) was 86.7%; in test [3] (HEK293, percent of maximal response to GIP(1-42)NH2, 37° C., 0.1% bovine casein, arithmetic mean, read-out: hGIPR Emax, % ± SEM) it was 93.3 ± 2.89%.
Turning to `CC[C@H](C)[C@H](NC(=O)[C@H](CC(C)C)NC(=O)[C@](C)(Cc1ccc(O)cc1)NC(=O)[C@@H](CCC(=O)O)NC(=O)[C@@H](NC(=O)[C@H](Cc1ccccc1)NC(=O)[C@H](CCCCNC(=O)COCCOCCNC(=O)COCCOCCNC(=O)CC[C@H](NC(=O)CCCCCCCCCOc1ccc(C(=O)O)cc1)C(=O)O)NC(=O)C(C)(C)NC(=O)[C@H](CCC(N)=O)NC(=O)[C@H](C)NC(=O)[C@H](CCCCNC(=O)COCCOCCNC(=O)COCCOCCNC(=O)CC[C@H](NC(=O)CCCCCCCCCOc1ccc(C(=O)O)cc1)C(=O)O)NC(=O)[C@H](CCCN)NC(=O)[C@H](CC(=O)O)NC(=O)[C@H](CC(C)C)NC(=O)[C@](C)(CC(C)C)NC(=O)[C@@H](NC(=O)C(C)(C)NC(=O)[C@H](Cc1ccc(O)cc1)NC(=O)[C@H](CC(=O)O)NC(=O)[C@H](CO)NC(=O)[C@@H](NC(=O)[C@](C)(Cc1ccccc1F)NC(=O)[C@@H](NC(=O)CNC(=O)[C@H](CCC(=O)O)NC(=O)C(C)(C)NC(=O)[C@@H](N)Cc1ccc(O)cc1)[C@@H](C)O)[C@@H](C)O)[C@@H](C)CC)[C@@H](C)CC)C(=O)N[C@@H](CCCN)C(=O)NCC(=O)NCC(=O)N1CCC[C@H]1C(=O)N[C@@H](CO)C(=O)N[C@@H](CO)C(=O)NCC(=O)N[C@@H](C)C(=O)N1CCC[C@H]1C(=O)N1CCC[C@H]1C(=O)N1CCC[C@H]1C(=O)N[C@@H](CO)C(N)=O` [Example 409] (H-Y[Aib]EGT[αMePhe(2-F)]TSDY[Aib]I[αMeL]LD[Orn]K([AEEA-AEEA-γGlu-Decanoyl(10-(4-HOOC-PhO))])AQ[Aib]K([AEEA-AEEA-γGlu-Decanoyl(10-(4-HOOC-PhO))])FI[dE][αMeY]LI[Orn]GGPSSGAPPPS-NH2; N-terminus assumed), the Emax in test [1] (HEK293, read-out: hGLP-1R Emax, % ± SEM, cAMP, 37° C., 0.1% bovine casein and 1.0% human serum albumin) was found to be 97.7%; in test [3] (HEK293, read-out: hGIPR Emax, % ± SEM, cAMP, 37° C., 0.1% bovine casein and 1.0% human serum albumin, percent of maximal response to GIP(1-42)NH2), 84%. For the same compound, the EC50 was 0.188 nM in test [1] (hGLP-1R EC50, nM (SEM, n), cAMP, 37° C., 0.1% bovine casein (no human serum albumin), geometric mean); > 9950 nM in test [2] (hGCGR EC50, nM (SEM, n), cAMP, 37° C., 0.1% bovine casein (no human serum albumin), geometric mean); > 9950 nM in test [2] (hGCGR EC50, nM (SEM, n), cAMP, 37° C., 0.1% bovine casein and 1.0% human serum albumin, geometric mean (SEM, n)); 0.00928 nM in test [3] (hGIPR EC50, nM (SEM, n), cAMP, 37° C., 0.1% bovine casein (no human serum albumin)).
On to `CC[C@H](C)[C@H](NC(=O)[C@H](CC(C)C)NC(=O)[C@](C)(Cc1ccc(O)cc1)NC(=O)[C@H](CCCCNC(=O)COCCOCCNC(=O)COCCOCCNC(=O)CC[C@H](NC(=O)CCCCCCCCCCCCC(=O)O)C(=O)O)NC(=O)[C@@H](NC(=O)[C@H](Cc1ccccc1)NC(=O)[C@H](CCC(=O)O)NC(=O)C(C)(C)NC(=O)[C@H](CCC(N)=O)NC(=O)[C@H](C)NC(=O)[C@H](CCC(N)=O)NC(=O)[C@H](CCCN)NC(=O)[C@H](CC(=O)O)NC(=O)[C@H](CC(C)C)NC(=O)[C@](C)(CC(C)C)NC(=O)[C@@H](NC(=O)C(C)(C)NC(=O)[C@@H](NC(=O)[C@H](CC(=O)O)NC(=O)[C@H](CO)NC(=O)[C@@H](NC(=O)[C@](C)(Cc1ccccc1F)NC(=O)[C@@H](NC(=O)CNC(=O)[C@H](CCC(=O)O)NC(=O)C(C)(C)NC(=O)[C@@H](N)Cc1ccc(O)cc1)[C@@H](C)O)[C@@H](C)O)C(C)C)[C@@H](C)CC)[C@@H](C)CC)C(=O)N[C@@H](CCCCNC(=O)COCCOCCNC(=O)COCCOCCNC(=O)CC[C@H](NC(=O)CCCCCCCCCCCCC(=O)O)C(=O)O)C(=O)NCC(=O)NCC(=O)N1CCC[C@H]1C(=O)N[C@@H](CO)C(=O)N[C@@H](CO)C(=O)NCC(=O)N[C@@H](C)C(=O)N1CCC[C@H]1C(=O)N1CCC[C@H]1C(=O)N1CCC[C@H]1C(=O)N[C@@H](CO)C(N)=O` [Example 390] (H-Y[Aib]EGT[αMePhe(2-F)]TSDV[Aib]I[αMeL]LD[Orn]QAQ[Aib]EFIK([AEEA-AEEA-γGlu-C14 diacid])[αMeY]LIK([AEEA-AEEA-γGlu-C14 diacid])GGPSSGAPPPS-NH2), for which the Emax in test [1] (HEK293, cAMP, 37° C., 0.1% bovine casein and 1.0% human serum albumin, read-out: hGLP-1R Emax, % ± SEM) was 94.6%; in test [1] (HEK293, cAMP, 37° C., 0.1% bovine casein, arithmetic mean, read-out: hGLP-1R Emax, % ± SEM), 97.7%; in test [3] (HEK293, cAMP, 37° C., 0.1% bovine casein and 1.0% human serum albumin, percent of maximal response to GIP(1-42)NH2, read-out: hGIPR Emax, % ± SEM) it was 89.3%. The EC50 in test [1] (cAMP, 37° C., 0.1% bovine casein (no human serum albumin), geometric mean, read-out: hGLP-1R EC50, nM (SEM, n)) is 0.209 nM; in test [1] (cAMP, 37° C., 0.1% bovine casein and 1.0% human serum albumin, geometric mean (SEM, n), read-out: hGLP-1R EC50, nM (SEM, n)), 24.3 nM; in test [2] (cAMP, 37° C., 0.1% bovine casein (no human serum albumin), geometric mean, read-out: hGCGR EC50, nM (SEM, n)) it was > 9950 nM; in test [2] (cAMP, 37° C., 0.1% bovine casein and 1.0% human serum albumin, geometric mean (SEM, n), read-out: hGCGR EC50, nM (SEM, n)), > 9950 nM; in test [3] (cAMP, 37° C., 0.1% bovine casein (no human serum albumin), read-out: hGIPR EC50, nM (SEM, n)), 0.0187 nM.
